Laboratory results reported in PubChem BioAssay (NCI).
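Grown in 96-well plates, cells were treated for 48 hours with each compound at five concentrations. Insufficient inhibition: endpoint recorded as highest concentration tested. TGI: concentration producing complete growth inhibition.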

Columns and labels:
Assay in all cases: DTP human tumour cell line panel, 48 h
M19-MEL melanoma = system: M19-MEL melanoma
OVCAR-5 ovarian = system: OVCAR-5 ovarian
K-562 leukemia = system: K-562 leukemia
COLO 205 colon = system: COLO 205 colon
UO-31 renal = system: UO-31 renal
LOX IMVI melanoma = system: LOX IMVI melanoma
MOLT-4 leukemia = system: MOLT-4 leukemia
DLD-1 colon = system: DLD-1 colon
SN12C renal = system: SN12C renal
M14 melanoma = system: M14 melanoma
UACC-62 melanoma = system: UACC-62 melanoma
OVCAR-4 ovarian = system: OVCAR-4 ovarian
786-0 renal = system: 786-0 renal
KM20L2 colon = system: KM20L2 colon
HCT-116 colon = system: HCT-116 colon
SW-620 colon = system: SW-620 colon
KM12 colon = system: KM12 colon
SK-MEL-5 melanoma = system: SK-MEL-5 melanoma
CCRF-CEM leukemia = system: CCRF-CEM leukemia
HCT-15 colon = system: HCT-15 colon
HT29 colon = system: HT29 colon
ACHN renal = system: ACHN renal
SR leukemia = system: SR leukemia
A498 renal = system: A498 renal
SF-268 CNS = system: SF-268 CNS
HOP-92 NSCLC = system: HOP-92 NSCLC
TK-10 renal = system: TK-10 renal
NCI-H522 lung = system: NCI-H522 lung
MALME-3M melanoma = system: MALME-3M melanoma
SNB-19 CNS = system: SNB-19 CNS
SF-295 CNS = system: SF-295 CNS
NCI-H23 lung = system: NCI-H23 lung
DMS 273 small cell lung = system: DMS 273 small cell lung
UACC-257 melanoma = system: UACC-257 melanoma
SK-OV-3 ovarian = system: SK-OV-3 ovarian
NCI-H226 lung = system: NCI-H226 lung
HOP-62 NSCLC = system: HOP-62 NSCLC
SNB-75 CNS = system: SNB-75 CNS
SK-MEL-2 melanoma = system: SK-MEL-2 melanoma
CAKI-1 renal = system: CAKI-1 renal
RXF-631 renal = system: RXF-631 renal
HL-60(TB) leukemia = system: HL-60(TB) leukemia
OVCAR-3 ovarian = system: OVCAR-3 ovarian
SNB-78 CNS = system: SNB-78 CNS
NCI-H460 lung = system: NCI-H460 lung
A549 NSCLC = system: A549 NSCLC
RXF 393 renal = system: RXF 393 renal
SF-539 CNS = system: SF-539 CNS
HOP-18 NSCLC = system: HOP-18 NSCLC
LXFL 529 NSCLC = system: LXFL 529 NSCLC
SK-MEL-28 melanoma = system: SK-MEL-28 melanoma
IGROV1 ovarian = system: IGROV1 ovarian
EKVX NSCLC = system: EKVX NSCLC
OVCAR-8 ovarian = system: OVCAR-8 ovarian
HCC-2998 colon = system: HCC-2998 colon
RPMI-8226 leukemia = system: RPMI-8226 leukemia
U251 CNS = system: U251 CNS
DMS 114 small cell lung = system: DMS 114 small cell lung

Cc1ccc(-n2c(O)c(C=N)c(=O)n(-c3ccc(C)cc3)c2=O)cc1
TGI (M19-MEL melanoma): > 100 µM
TGI (OVCAR-5 ovarian): > 100 µM
TGI (K-562 leukemia): > 100 µM
TGI (COLO 205 colon): > 100 µM
TGI (UO-31 renal): > 100 µM
TGI (LOX IMVI melanoma): > 100 µM
TGI (MOLT-4 leukemia): > 100 µM
TGI (DLD-1 colon): > 100 µM
TGI (SN12C renal): > 100 µM
TGI (M14 melanoma): > 100 µM
TGI (UACC-62 melanoma): > 100 µM
TGI (OVCAR-4 ovarian): > 100 µM
TGI (786-0 renal): > 100 µM
TGI (KM20L2 colon): > 100 µM
TGI (HCT-116 colon): > 100 µM
TGI (SW-620 colon): > 100 µM
TGI (KM12 colon): > 100 µM
TGI (SK-MEL-5 melanoma): > 100 µM
TGI (CCRF-CEM leukemia): > 100 µM
TGI (HCT-15 colon): > 100 µM
TGI (HT29 colon): > 100 µM
TGI (ACHN renal): > 100 µM
TGI (SR leukemia): > 100 µM
TGI (A498 renal): > 100 µM
TGI (SF-268 CNS): > 100 µM
TGI (HOP-92 NSCLC): 95.9 µM
TGI (TK-10 renal): > 100 µM
TGI (NCI-H522 lung): > 100 µM
TGI (MALME-3M melanoma): > 100 µM
TGI (SNB-19 CNS): > 100 µM
TGI (SF-295 CNS): > 100 µM
TGI (NCI-H23 lung): > 100 µM
TGI (DMS 273 small cell lung): > 100 µM
TGI (UACC-257 melanoma): > 100 µM
TGI (SK-OV-3 ovarian): 78.8 µM
TGI (NCI-H226 lung): > 100 µM
TGI (HOP-62 NSCLC): > 100 µM
TGI (SNB-75 CNS): 75.2 µM
TGI (SK-MEL-2 melanoma): > 100 µM
TGI (CAKI-1 renal): > 100 µM
TGI (RXF-631 renal): > 100 µM
TGI (HL-60(TB) leukemia): > 100 µM
TGI (OVCAR-3 ovarian): > 100 µM
TGI (SNB-78 CNS): > 100 µM
TGI (NCI-H460 lung): > 100 µM
TGI (A549 NSCLC): > 100 µM
TGI (RXF 393 renal): > 100 µM
TGI (SF-539 CNS): > 100 µM
TGI (HOP-18 NSCLC): > 100 µM
TGI (LXFL 529 NSCLC): > 100 µM
TGI (SK-MEL-28 melanoma): > 100 µM
TGI (IGROV1 ovarian): > 100 µM
TGI (EKVX NSCLC): > 100 µM
TGI (OVCAR-8 ovarian): > 100 µM

CCOc1ccc([Se][Se]c2ccc(OCC)cc2)cc1
TGI (HCC-2998 colon): > 100 µM
TGI (M19-MEL melanoma): > 100 µM
TGI (OVCAR-5 ovarian): > 100 µM
TGI (COLO 205 colon): > 100 µM
TGI (UO-31 renal): > 100 µM
TGI (DLD-1 colon): > 100 µM
TGI (SN12C renal): > 100 µM
TGI (M14 melanoma): > 100 µM
TGI (UACC-62 melanoma): > 100 µM
TGI (OVCAR-4 ovarian): > 100 µM
TGI (786-0 renal): > 100 µM
TGI (KM20L2 colon): > 100 µM
TGI (HCT-116 colon): > 100 µM
TGI (SW-620 colon): > 100 µM
TGI (KM12 colon): > 100 µM
TGI (RPMI-8226 leukemia): > 100 µM
TGI (HCT-15 colon): > 100 µM
TGI (SR leukemia): > 100 µM
TGI (SF-268 CNS): > 100 µM
TGI (TK-10 renal): > 100 µM
TGI (NCI-H522 lung): > 100 µM
TGI (MALME-3M melanoma): > 100 µM
TGI (SNB-19 CNS): > 100 µM
TGI (SF-295 CNS): > 100 µM
TGI (NCI-H23 lung): 54.9 µM
TGI (DMS 273 small cell lung): > 100 µM
TGI (NCI-H226 lung): > 100 µM
TGI (SNB-75 CNS): > 100 µM
TGI (SK-MEL-2 melanoma): > 100 µM
TGI (CAKI-1 renal): 49.6 µM
TGI (RXF-631 renal): > 100 µM
TGI (OVCAR-3 ovarian): > 100 µM
TGI (SNB-78 CNS): > 100 µM
TGI (NCI-H460 lung): > 100 µM
TGI (U251 CNS): 96.8 µM
TGI (DMS 114 small cell lung): > 100 µM
TGI (A549 NSCLC): > 100 µM
TGI (RXF 393 renal): > 100 µM
TGI (SF-539 CNS): > 100 µM
TGI (HOP-18 NSCLC): > 100 µM
TGI (LXFL 529 NSCLC): > 100 µM
TGI (SK-MEL-28 melanoma): > 100 µM
TGI (IGROV1 ovarian): > 100 µM
TGI (EKVX NSCLC): > 100 µM
TGI (OVCAR-8 ovarian): > 100 µM
